Test results from patent US8192962B2, “Processes for detecting toxic substances” (Daikin Industries, Ltd., priority 2001, dated 2012).

Test system: Energy system protein genes
Assay: DNA chip mRNA expression in yeast, energy system protein genes (Table 4)
Type: cell-based, Saccharomyces cerevisiae S288C
Outline: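 S. cerevisiae S288C grown at 25° C in YPD were exposed in log phase for two hours to one toxic chemical at a growth-inhibiting, non-lethal concentration; untreated cells served as control. Poly(A) mRNA was reverse-transcribed with Cy3/Cy5-dUTP and hybridized to a whole-genome yeast DNA chip at 65° C for over 12 hours; values are fluorescence ratios versus untreated.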

## CCCCCCCCCCCCc1ccc(S(=O)(=O)[O-])cc1.[Na+] [(17), sodium dodecylbenzosulfonate]
Yeast gene YJR048W
  The level of expressed mRNA in the presence of chemical substance/The level of expressed mRNA in the absence of chemical substance: 1.2
Yeast gene YJR121W, cells incubated two hours with the chemical substance
  The level of expressed mRNA in the presence of chemical substance/The level of expressed mRNA in the absence of chemical substance: 1.1
Yeast gene YJR155W
  The level of expressed mRNA in the presence of chemical substance/The level of expressed mRNA in the absence of chemical substance: 1.3
Yeast gene YKL016C, cells incubated two hours with the chemical substance
  The level of expressed mRNA in the presence of chemical substance/The level of expressed mRNA in the absence of chemical substance: 1.0
Yeast gene YKL060C, cells incubated two hours with the chemical substance
  The level of expressed mRNA in the presence of chemical substance/The level of expressed mRNA in the absence of chemical substance: 1.2
Yeast gene YKL141W, cells incubated two hours with the chemical substance
  The level of expressed mRNA in the presence of chemical substance/The level of expressed mRNA in the absence of chemical substance: 0.9
Yeast gene YKL148C, cells incubated two hours with the chemical substance
  The level of expressed mRNA in the presence of chemical substance/The level of expressed mRNA in the absence of chemical substance: 0.8
Yeast gene YKR009C, cells incubated two hours with the chemical substance
  The level of expressed mRNA in the presence of chemical substance/The level of expressed mRNA in the absence of chemical substance: 1.9
Yeast gene YKR058W, cells incubated two hours with the chemical substance, 25° C., YPD medium
  The level of expressed mRNA in the presence of chemical substance/The level of expressed mRNA in the absence of chemical substance: 0.8
Yeast gene YKR097W
  The level of expressed mRNA in the presence of chemical substance/The level of expressed mRNA in the absence of chemical substance: 1.1
Yeast gene YLL041C, cells incubated two hours with the chemical substance
  The level of expressed mRNA in the presence of chemical substance/The level of expressed mRNA in the absence of chemical substance: 1.1
Yeast gene YLR038C, cells incubated two hours with the chemical substance
  The level of expressed mRNA in the presence of chemical substance/The level of expressed mRNA in the absence of chemical substance: 1.2
Yeast gene YLR044C, cells incubated two hours with the chemical substance
  The level of expressed mRNA in the presence of chemical substance/The level of expressed mRNA in the absence of chemical substance: 0.9
Yeast gene YLR134W, cells incubated two hours with the chemical substance
  The level of expressed mRNA in the presence of chemical substance/The level of expressed mRNA in the absence of chemical substance: 0.6
Yeast gene YLR258W, cells incubated two hours with the chemical substance
  The level of expressed mRNA in the presence of chemical substance/The level of expressed mRNA in the absence of chemical substance: 1.0
Yeast gene YLR284C, cells incubated two hours with the chemical substance
  The level of expressed mRNA in the presence of chemical substance/The level of expressed mRNA in the absence of chemical substance: 2.9
Yeast gene YLR295C, cells incubated two hours with the chemical substance, 25° C., YPD medium
  The level of expressed mRNA in the presence of chemical substance/The level of expressed mRNA in the absence of chemical substance: 0.9
Yeast gene YLR304C, cells incubated two hours with the chemical substance
  The level of expressed mRNA in the presence of chemical substance/The level of expressed mRNA in the absence of chemical substance: 0.5
Yeast gene YLR345W
  The level of expressed mRNA in the presence of chemical substance/The level of expressed mRNA in the absence of chemical substance: 1.2
Yeast gene YLR354C, cells incubated two hours with the chemical substance
  The level of expressed mRNA in the presence of chemical substance/The level of expressed mRNA in the absence of chemical substance: 1.0
Yeast gene YLR377C, cells incubated two hours with the chemical substance
  The level of expressed mRNA in the presence of chemical substance/The level of expressed mRNA in the absence of chemical substance: 0.9
Yeast gene YLR395C, cells incubated two hours with the chemical substance
  The level of expressed mRNA in the presence of chemical substance/The level of expressed mRNA in the absence of chemical substance: 1.2
Yeast gene YML087C
  The level of expressed mRNA in the presence of chemical substance/The level of expressed mRNA in the absence of chemical substance: 0.7
Yeast gene YML120C, cells incubated two hours with the chemical substance
  The level of expressed mRNA in the presence of chemical substance/The level of expressed mRNA in the absence of chemical substance: 1.0
Yeast gene YML129C, cells incubated two hours with the chemical substance
  The level of expressed mRNA in the presence of chemical substance/The level of expressed mRNA in the absence of chemical substance: 1.3
Yeast gene YMR073C, cells incubated two hours with the chemical substance
  The level of expressed mRNA in the presence of chemical substance/The level of expressed mRNA in the absence of chemical substance: 0.8
Yeast gene YMR118C
  The level of expressed mRNA in the presence of chemical substance/The level of expressed mRNA in the absence of chemical substance: 0.8
Yeast gene YMR205C, cells incubated two hours with the chemical substance
  The level of expressed mRNA in the presence of chemical substance/The level of expressed mRNA in the absence of chemical substance: 0.6
Yeast gene YMR261C, cells incubated two hours with the chemical substance
  The level of expressed mRNA in the presence of chemical substance/The level of expressed mRNA in the absence of chemical substance: 0.7
Yeast gene YMR267W, cells incubated two hours with the chemical substance, 25° C., YPD medium
  The level of expressed mRNA in the presence of chemical substance/The level of expressed mRNA in the absence of chemical substance: 0.9
Yeast gene YMR323W, cells incubated two hours with the chemical substance
  The level of expressed mRNA in the presence of chemical substance/The level of expressed mRNA in the absence of chemical substance: 1.1
Yeast gene YNL071W
  The level of expressed mRNA in the presence of chemical substance/The level of expressed mRNA in the absence of chemical substance: 1.0
Yeast gene YNL202W, cells incubated two hours with the chemical substance
  The level of expressed mRNA in the presence of chemical substance/The level of expressed mRNA in the absence of chemical substance: 2.4
Yeast gene YNL241C
  The level of expressed mRNA in the presence of chemical substance/The level of expressed mRNA in the absence of chemical substance: 1.0
Yeast gene YNL331C
  The level of expressed mRNA in the presence of chemical substance/The level of expressed mRNA in the absence of chemical substance: 1.7
Yeast gene YOL086C, cells incubated two hours with the chemical substance
  The level of expressed mRNA in the presence of chemical substance/The level of expressed mRNA in the absence of chemical substance: 1.1
Yeast gene YOL165C
  The level of expressed mRNA in the presence of chemical substance/The level of expressed mRNA in the absence of chemical substance: 1.6
Yeast gene YOR142W, cells incubated two hours with the chemical substance
  The level of expressed mRNA in the presence of chemical substance/The level of expressed mRNA in the absence of chemical substance: 0.9
Yeast gene YOR178C, cells incubated two hours with the chemical substance
  The level of expressed mRNA in the presence of chemical substance/The level of expressed mRNA in the absence of chemical substance: 1.0
Yeast gene YOR388C, cells incubated two hours with the chemical substance
  The level of expressed mRNA in the presence of chemical substance/The level of expressed mRNA in the absence of chemical substance: 1.0
Yeast gene YPL031C, cells incubated two hours with the chemical substance
  The level of expressed mRNA in the presence of chemical substance/The level of expressed mRNA in the absence of chemical substance: 1.4
Yeast gene YPL061W, cells incubated two hours with the chemical substance
  The level of expressed mRNA in the presence of chemical substance/The level of expressed mRNA in the absence of chemical substance: 1.6
Yeast gene YPL088W
  The level of expressed mRNA in the presence of chemical substance/The level of expressed mRNA in the absence of chemical substance: 9.1
Yeast gene YPL171C
  The level of expressed mRNA in the presence of chemical substance/The level of expressed mRNA in the absence of chemical substance: 2.4
Yeast gene YPL240C
  The level of expressed mRNA in the presence of chemical substance/The level of expressed mRNA in the absence of chemical substance: 0.8
Yeast gene YPL262W, cells incubated two hours with the chemical substance
  The level of expressed mRNA in the presence of chemical substance/The level of expressed mRNA in the absence of chemical substance: 1.1
Yeast gene YPL275W, cells incubated two hours with the chemical substance
  The level of expressed mRNA in the presence of chemical substance/The level of expressed mRNA in the absence of chemical substance: 1.0
Yeast gene YPL276W, cells incubated two hours with the chemical substance
  The level of expressed mRNA in the presence of chemical substance/The level of expressed mRNA in the absence of chemical substance: 1.1
Yeast gene YPR048W, cells incubated two hours with the chemical substance
  The level of expressed mRNA in the presence of chemical substance/The level of expressed mRNA in the absence of chemical substance: 0.7
Yeast gene YPR184W, cells incubated two hours with the chemical substance
  The level of expressed mRNA in the presence of chemical substance/The level of expressed mRNA in the absence of chemical substance: 1.0
